Data taken from ChEMBL document CHEMBL2401670, “Synthesis and biological evaluation of rhodanine derivatives bearing a quinoline moiety as potent antimicrobial agents” (Bioorg Med Chem Lett, 2013).
In brackets after ≈: the same amount, converted by molar mass.

Legend:
Staphylococcus aureus [1] = assay: Antibacterial activity against Staphylococcus aureus KCTC 503 after 24 hrs by broth microdilution method; type: functional; settings: KCTC 503, 24 h
Staphylococcus aureus [2] = assay: Antibacterial activity against quinolone-resistant Staphylococcus aureus CCARM 3519 after 24 hrs by broth microdilution method; type: functional; settings: CCARM 3519, 24 h
Staphylococcus aureus [3] = assay: Antibacterial activity against quinolone-resistant Staphylococcus aureus CCARM 3505 after 24 hrs by broth microdilution method; type: functional; settings: CCARM 3505, 24 h
Staphylococcus aureus [4] = assay: Antibacterial activity against Staphylococcus aureus KCTC 209 after 24 hrs by broth microdilution method; type: functional; settings: KCTC 209, 24 h
Staphylococcus aureus [5] = assay: Antibacterial activity against methicillin-resistant Staphylococcus aureus CCARM 3506 after 24 hrs by broth microdilution method; type: functional; settings: CCARM 3506, 24 h
Escherichia coli = assay: Antibacterial activity against Escherichia coli CCARM 1356 after 24 hrs by broth microdilution method; type: functional; settings: CCARM 1356, 24 h
Staphylococcus aureus [6] = assay: Antibacterial activity against Staphylococcus aureus RN4220 after 24 hrs by broth microdilution method; type: functional; settings: RN4220, 24 h
Staphylococcus aureus [7] = assay: Antibacterial activity against methicillin-resistant Staphylococcus aureus CCARM 3167 after 24 hrs by broth microdilution method; type: functional; settings: CCARM 3167, 24 h
HeLa = assay: Cytotoxicity against human HeLa cells after 48 hrs by MTT assay; type: cell-based

| SMILES | MIC (Staphylococcus aureus [1]) | MIC (Staphylococcus aureus [2]) | MIC (Staphylococcus aureus [3]) | MIC (Staphylococcus aureus [4]) | MIC (Staphylococcus aureus [5]) | MIC (Escherichia coli) | MIC (Staphylococcus aureus [6]) | MIC (Staphylococcus aureus [7]) | IC50 (HeLa) |
| --- | --- | --- | --- | --- | --- | --- | --- | --- | --- |
| O=C(O)[C@H](Cc1ccccc1)N1C(=O)/C(=C/c2cc3cc(OCc4ccc(F)cc4)ccc3nc2Cl)SC1=S | 4 µg/mL (≈ 6.91 µM) | 4 µg/mL (≈ 6.91 µM) | 2 µg/mL (≈ 3.45 µM) | 32 µg/mL (≈ 55.3 µM) | 2 µg/mL (≈ 3.45 µM) | > 64 µg/mL | 4 µg/mL (≈ 6.91 µM) | 2 µg/mL (≈ 3.45 µM) | – |
| CCC(C)[C@@H](C(=O)O)N1C(=O)/C(=C/c2cc3cc(OCc4ccccc4Cl)ccc3nc2Cl)SC1=S (some centres not stated) | 8 µg/mL (≈ 14.2 µM) | 2 µg/mL (≈ 3.56 µM) | 2 µg/mL (≈ 3.56 µM) | 64 µg/mL (≈ 114 µM) | 1 µg/mL (≈ 1.78 µM) | > 64 µg/mL | 4 µg/mL (≈ 7.12 µM) | 2 µg/mL (≈ 3.56 µM) | – |
| CCC(C)[C@@H](C(=O)O)N1C(=O)/C(=C/c2cc3cc(OCc4ccc(F)cc4)ccc3nc2Cl)SC1=S (some centres not stated) | 4 µg/mL (≈ 7.34 µM) | 1 µg/mL (≈ 1.83 µM) | 2 µg/mL (≈ 3.67 µM) | 2 µg/mL (≈ 3.67 µM) | 1 µg/mL (≈ 1.83 µM) | > 64 µg/mL | 1 µg/mL (≈ 1.83 µM) | 2 µg/mL (≈ 3.67 µM) | – |
| Cc1onc(-c2ccccc2)c1C(=O)N[C@@H]1C(=O)N2[C@@H]1SC(C)(C)[C@@H]2C(=O)O [OXACILLIN] | 1 µg/mL (≈ 2.49 µM) | 1 µg/mL (≈ 2.49 µM) | 1 µg/mL (≈ 2.49 µM) | 1 µg/mL (≈ 2.49 µM) | > 64 µg/mL | > 64 µg/mL | 1 µg/mL (≈ 2.49 µM) | > 64 µg/mL | – |
| O=C(O)[C@H](Cc1ccccc1)N1C(=O)/C(=C/c2cc3cc(OCc4cccc(Cl)c4)ccc3nc2Cl)SC1=S | 8 µg/mL (≈ 13.4 µM) | 2 µg/mL (≈ 3.36 µM) | 2 µg/mL (≈ 3.36 µM) | 64 µg/mL (≈ 107 µM) | 2 µg/mL (≈ 3.36 µM) | > 64 µg/mL | 2 µg/mL (≈ 3.36 µM) | 2 µg/mL (≈ 3.36 µM) | – |
| CCC(C)[C@@H](C(=O)O)N1C(=O)/C(=C/c2cc3cc(OCc4cccc(F)c4)ccc3nc2Cl)SC1=S (some centres not stated) | 8 µg/mL (≈ 14.7 µM) | 2 µg/mL (≈ 3.67 µM) | 2 µg/mL (≈ 3.67 µM) | 32 µg/mL (≈ 58.7 µM) | 1 µg/mL (≈ 1.83 µM) | > 64 µg/mL | 2 µg/mL (≈ 3.67 µM) | 2 µg/mL (≈ 3.67 µM) | – |
| CCC(C)[C@@H](C(=O)O)N1C(=O)/C(=C/c2cc3cc(OCc4ccccc4F)ccc3nc2Cl)SC1=S (some centres not stated) | 4 µg/mL (≈ 7.34 µM) | 2 µg/mL (≈ 3.67 µM) | 2 µg/mL (≈ 3.67 µM) | 32 µg/mL (≈ 58.7 µM) | 1 µg/mL (≈ 1.83 µM) | > 64 µg/mL | 2 µg/mL (≈ 3.67 µM) | 2 µg/mL (≈ 3.67 µM) | – |
| CCn1cc(C(=O)O)c(=O)c2cc(F)c(N3CCNCC3)cc21 [NORFLOXACIN] | 2 µg/mL (≈ 6.26 µM) | > 64 µg/mL | > 64 µg/mL | 2 µg/mL (≈ 6.26 µM) | 4 µg/mL (≈ 12.5 µM) | 16 µg/mL (≈ 50.1 µM) | 2 µg/mL (≈ 6.26 µM) | 8 µg/mL (≈ 25.1 µM) | – |
| Cc1ccc(COc2ccc3nc(Cl)c(/C=C4\SC(=S)N([C@@H](CC(C)C)C(=O)O)C4=O)cc3c2)cc1 | 8 µg/mL (≈ 14.8 µM) | 1 µg/mL (≈ 1.85 µM) | 1 µg/mL (≈ 1.85 µM) | 8 µg/mL (≈ 14.8 µM) | 2 µg/mL (≈ 3.7 µM) | > 64 µg/mL | 1 µg/mL (≈ 1.85 µM) | 1 µg/mL (≈ 1.85 µM) | 8.84 µg/mL (≈ 16.3 µM) |
| CCC(C)[C@@H](C(=O)O)N1C(=O)/C(=C/c2cc3cc(OCc4ccc(Cl)cc4)ccc3nc2Cl)SC1=S (some centres not stated) | 4 µg/mL (≈ 7.12 µM) | 2 µg/mL (≈ 3.56 µM) | 2 µg/mL (≈ 3.56 µM) | 8 µg/mL (≈ 14.2 µM) | 1 µg/mL (≈ 1.78 µM) | > 64 µg/mL | 2 µg/mL (≈ 3.56 µM) | 1 µg/mL (≈ 1.78 µM) | – |
| O=C(O)[C@H](Cc1ccccc1)N1C(=O)/C(=C/c2cc3cc(OCc4ccccc4Br)ccc3nc2Cl)SC1=S | 8 µg/mL (≈ 12.5 µM) | 2 µg/mL (≈ 3.13 µM) | 2 µg/mL (≈ 3.13 µM) | 8 µg/mL (≈ 12.5 µM) | 2 µg/mL (≈ 3.13 µM) | > 64 µg/mL | 4 µg/mL (≈ 6.25 µM) | 2 µg/mL (≈ 3.13 µM) | – |
| CC(C)C[C@@H](C(=O)O)N1C(=O)/C(=C/c2cc3cc(OCc4cccc(Cl)c4)ccc3nc2Cl)SC1=S | 64 µg/mL (≈ 114 µM) | 2 µg/mL (≈ 3.56 µM) | 2 µg/mL (≈ 3.56 µM) | 4 µg/mL (≈ 7.12 µM) | 2 µg/mL (≈ 3.56 µM) | > 64 µg/mL | 2 µg/mL (≈ 3.56 µM) | 1 µg/mL (≈ 1.78 µM) | – |
